Assays:
[1] = target: T1, rec-CgHMGR (CgHMGR) (Nakaseomyces glabratus, UniProt Q6FKH6); assay: NADPH oxidation at […] nm; format: biochemical; conditions: read-out: Inhibition (% of Relative Activity) *
T1 construct: gene HMG1; transmembrane region removed), pPICZB, His-tagged, expressed in Pichia pastoris X-33, Ni-NTA purified, approx. 48 kDa by SDS-PAGE
T1 sequence (Q6FKH6 619-1056 limits assumed): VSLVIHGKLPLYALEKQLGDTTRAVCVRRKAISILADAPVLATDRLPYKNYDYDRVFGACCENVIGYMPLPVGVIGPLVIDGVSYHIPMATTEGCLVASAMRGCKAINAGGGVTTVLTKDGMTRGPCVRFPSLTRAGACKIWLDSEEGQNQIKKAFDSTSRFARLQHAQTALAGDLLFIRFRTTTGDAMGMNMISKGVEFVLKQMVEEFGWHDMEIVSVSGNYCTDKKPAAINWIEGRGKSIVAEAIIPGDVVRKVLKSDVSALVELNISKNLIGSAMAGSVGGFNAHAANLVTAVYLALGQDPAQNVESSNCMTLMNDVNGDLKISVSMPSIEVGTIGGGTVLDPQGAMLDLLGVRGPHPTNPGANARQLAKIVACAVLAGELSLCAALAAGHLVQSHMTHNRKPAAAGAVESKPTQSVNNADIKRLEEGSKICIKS

[2] = target: T1, rec-CgHMGR (CgHMGR); assay: NADPH oxidation at […] nm; format: biochemical; conditions: HMG-CoA, 50 mM Tris-HCl pH 8.0, 37 °C

SMILES	inhibition at 100 µM [1]	NADPH oxidation at 340 nm [2]
CCCc1cc(OC)c(OCC(=O)OC)cc1[N+](=O)[O-] [1a]	73 ± 1.52%	
CCCc1cc(OC)c(OCC(=O)OC)cc1O [1b]	89 ± 1.24%	
CCc1ccc(OCC(=O)OC)c([N+](=O)[O-])c1 [6g]	86 ± 3.21%	
CCCc1cc(OC)c(OC)cc1O [7a]	66 ± 2.08%	
NC(=O)C1=CN([C@@H]2O[C@H](COP(=O)(O)OP(=O)(O)OC[C@H]3O[C@@H](n4cnc5c(N)ncnc54)[C@H](OP(=O)(O)O)[C@@H]3O)[C@@H](O)[C@H]2O)C=CC1 [NADPH]		converted into its oxidized form by the catalytic subunit of HMGR in the presence of HMG-CoA

Reference: publication PMC10706242, “Inhibitors of 3-Hydroxy-3-methylglutaryl Coenzyme A Reductase Decrease the Growth, Ergosterol Synthesis and Generation of petite Mutants in Candida glabrata and Candida albicans” (International Journal of Molecular Sciences, 2023)
